# Laboratory results: US11472798B2 (Mission Therapeutics Limited, priority 2014, dated 2022)
# Target: T1, UCHL1 (Homo sapiens, UniProt P09936)
# T1 construct: made in house; host or cells: HEK293T
# T1 sequence (P09936 1-223): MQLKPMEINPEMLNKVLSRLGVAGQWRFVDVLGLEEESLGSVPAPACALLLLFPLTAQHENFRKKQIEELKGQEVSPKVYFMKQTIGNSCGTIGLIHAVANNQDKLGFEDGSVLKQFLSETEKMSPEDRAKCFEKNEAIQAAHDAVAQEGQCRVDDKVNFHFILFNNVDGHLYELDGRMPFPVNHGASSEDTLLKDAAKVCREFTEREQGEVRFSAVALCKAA
# Experiment: UCHL1 biochemical IC50 assay (fluorescence polarisation)
# Conditions: 30 min enzyme/compound pre-incubation at room temp, read after 2 hr incubation, read-out: Activity range (UCHL1 biochemical IC50 assay)
# Procedure, shortened: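 FLAG-UCHL1 purified from transfected HEK293T cells was preincubated 30 min at room temperature with compound (8 points, 100–0.03 μM final) in Tris pH 7.5 buffer with Tween 20, BSA and beta-mercaptoethanol. Reaction started with 50 nM TAMRA-peptide–ubiquitin isopeptide substrate; fluorescence polarisation (ex 540/em 590 nm) read at once and after 2 h.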
row,SMILES,IC50 [nM]
1,"N#CN1CC[C@H](C(=O)Nc2cn(C3CCCCC3)cn2)C1 [Example 162, (S)-1-cyano-N-(1-cyclohexyl-1H-imidazol-4-yl)pyrrolidine-3-carboxamide]",< 1000
2,N#CN1CC[C@H](C(=O)Nc2cn(C3CCc4ccccc43)cn2)C1 (some centres unmarked) [Example 163],< 1000
3,"N#CN1CC[C@H](C(=O)Nc2cn(C3Cc4ccccc4C3)cn2)C1 [Example 164, (S)-1-cyano-N-(1-(2,3-dihydro-1H-inden-2-yl)-1H-imidazol-4-yl)pyrrolidine-3-carboxamide]",< 1000
4,"N#CN1CC[C@H](C(=O)Nc2cn(CC3CCOCC3)cn2)C1 [Example 165, (S)-1-cyano-N-(1-((tetrahydro-2H-pyran-4-yl)methyl)-1H-imidazol-4-yl)pyrrolidine-3-carboxamide]",1000 to 10000
5,"C[C@@H](c1ccccc1)n1cnc(NC(=O)[C@H]2CCN(C#N)C2)c1 [Example 166, (S)-1-cyano-N-(1-((S)-1-phenylethyl)-1H-imidazol-4-yl)pyrrolidine-3-carboxamide]",< 1000
6,"C[C@H](c1ccccc1)n1cnc(NC(=O)[C@H]2CCN(C#N)C2)c1 [Example 167, (S)-1-cyano-N-(1-((R)-1-phenylethyl)-1H-imidazol-4-yl)pyrrolidine-3-carboxamide]",< 1000
7,"N#CN1CC[C@H](C(=O)Nc2cn(Cc3ccccn3)cn2)C1 [Example 168, (S)-1-cyano-N-(1-(pyridin-2-ylmethyl)-1H-imidazol-4-yl)pyrrolidine-3-carboxamide]",< 1000
8,"N#CN1CC[C@H](C(=O)Nc2cn(Cc3cccnc3)cn2)C1 [Example 169, (S)-1-cyano-N-(1-(pyridin-3-ylmethyl)-1H-imidazol-4-yl)pyrrolidine-3-carboxamide]",< 1000
9,"N#CN1CC[C@H](C(=O)Nc2cn(Cc3ccncc3)cn2)C1 [Example 170, (S)-1-cyano-N-(1-(pyridin-4-ylmethyl)-1H-imidazol-4-yl)pyrrolidine-3-carboxamide]",< 1000
10,"Cc1noc(C)c1Cn1cnc(NC(=O)[C@H]2CCN(C#N)C2)c1 [Example 171, (S)-1-cyano-N-(1-((3,5-dimethylisoxazol-4-yl)methyl)-1H-imidazol-4-yl)pyrrolidine-3-carboxamide]",1000 to 10000
11,"C[C@H]1[C@@H](C(=O)Nc2cn([C@@H](C)c3ccccc3)cn2)CCN1C#N [Example 172, (2S,3S)-1-cyano-2-methyl-N-(1-((S)-1-phenylethyl)-1H-imidazol-4-yl)pyrrolidine-3-carboxamide]",1000 to 10000
12,"C[C@@H]1CN(C#N)C[C@H]1C(=O)Nc1cn([C@@H](C)c2ccccc2)cn1 [Example 173, (3S,4S)-1-cyano-4-methyl-N-(1-((S)-1-phenylethyl)-1H-imidazol-4-yl)pyrrolidine-3-carboxamide]",< 1000
13,"Cc1ccnc(-n2cnc(NC(=O)[C@H]3CCN(C#N)C3)c2)c1 [Example 174, (S)-1-cyano-N-(1-(4-methylpyridin-2-yl)-1H-imidazol-4-yl)pyrrolidine-3-carboxamide]",< 1000
14,"Cc1cccc(-n2cnc(NC(=O)[C@H]3CCN(C#N)C3)c2)n1 [Example 175, (S)-1-cyano-N-(1-(6-methylpyridin-2-yl)-1H-imidazol-4-yl)pyrrolidine-3-carboxamide]",1000 to 10000
15,"Cc1nccc(-n2cnc(NC(=O)[C@H]3CCN(C#N)C3)c2)n1 [Example 176, (S)-1-cyano-N-(1-(2-methylpyrimidin-4-yl)-1H-imidazol-4-yl)pyrrolidine-3-carboxamide]",1000 to 10000
16,"N#Cc1ccc(-n2cnc(NC(=O)[C@H]3CCN(C#N)C3)c2)cc1 [Example 177, (S)-1-cyano-N-(1-(4-cyanophenyl)-1H-imidazol-4-yl)pyrrolidine-3-carboxamide]",< 1000
17,"Cc1nc(NC(=O)[C@H]2CCN(C#N)C2)cn1Cc1ccccc1 [Example 178, (S)—N-(1-benzyl-2-methyl-1H-imidazol-4-yl)-1-cyanopyrrolidine-3-carboxamide]",< 1000
18,"Cc1noc(C)c1CCn1cnc(NC(=O)[C@H]2CCN(C#N)C2)c1 [Example 179, (S)-1-cyano-N-(1-(2-(3,5-dimethylisoxazol-4-yl)ethyl)-1H-imidazol-4-yl)pyrrolidine-3-carboxamide]",< 1000
19,"N#Cc1cccc(-n2cnc(NC(=O)[C@H]3CCN(C#N)C3)c2)c1 [Example 180, (S)-1-cyano-N-(1-(3-cyanophenyl)-1H-imidazol-4-yl)pyrrolidine-3-carboxamide]",< 1000

row,SMILES,IC50 [nM]
1,"N#CN1CC[C@H](C(=O)Nc2cn(-c3cccnc3)cn2)C1 [Example 181, (S)-1-cyano-N-(1-(pyridin-3-yl)-1H-imidazol-4-yl)pyrrolidine-3-carboxamide]",< 1000
2,"N#CN1CC[C@H](C(=O)Nc2cn(-c3ccncc3)cn2)C1 [Example 182, (S)-1-cyano-N-(1-(pyridin-4-yl)-1H-imidazol-4-yl)pyrrolidine-3-carboxamide]",< 1000
3,"COc1cccc(-n2cnc(NC(=O)[C@H]3CCN(C#N)C3)c2)c1 [Example 183, (S)-1-cyano-N-(1-(3-methoxyphenyl)-1H-imidazol-4-yl)pyrrolidine-3-carboxamide]",< 1000
4,"N#CN1CC[C@H](C(=O)Nc2cn(C3CCCN(C(=O)c4ccccc4)C3)cn2)C1 (stereo partly drawn) [Example 184, (3S)—N-(1-(1-benzoylpiperidin-3-yl)-1H-imidazol-4-yl)-1-cyanopyrrolidine-3-carboxamide]",< 1000
5,"N#CN1CC[C@H](C(=O)Nc2cn(C3CCN(C(=O)c4ccccc4)C3)cn2)C1 (stereo partly drawn) [Example 185, (3S)—N-(1-(1-benzoylpyrrolidin-3-yl)-1H-imidazol-4-yl)-1-cyanopyrrolidine-3-carboxamide]",< 1000
6,"N#CN1CC[C@H](C(=O)Nc2cn(C3CCCN(Cc4ccccc4)C3)cn2)C1 (stereo partly drawn) [Example 186, (3S)—N-(1-(1-benzylpiperidin-3-yl)-1H-imidazol-4-yl)-1-cyanopyrrolidine-3-carboxamide]",< 1000
7,"CN1CCCC(n2cnc(NC(=O)[C@H]3CCN(C#N)C3)c2)C1 (stereo partly drawn) [Example 187, (3S)-1-cyano-N-(1-(1-methylpiperidin-3-yl)-1H-imidazol-4-yl)pyrrolidine-3-carboxamide]",< 1000
8,"CN1CCC(n2cnc(NC(=O)[C@H]3CCN(C#N)C3)c2)C1 (stereo partly drawn) [Example 188, (3S)-1-cyano-N-(1-(1-methylpyrrolidin-3-yl)-1H-imidazol-4-yl)pyrrolidine-3-carboxamide]",1000 to 10000
9,"CC(=O)N1CCc2nc(NC(=O)[C@H]3CCN(C#N)C3)sc2C1 [Example 189, (S)—N-(5-acetyl-4,5,6,7-tetrahydrothiazolo[5,4-c]pyridin-2-yl)-1-cyanopyrrolidine-3-carboxamide]",< 1000
10,"CC(C)C(=O)N1CCc2nc(NC(=O)[C@H]3CCN(C#N)C3)sc2C1 [Example 190, (S)-1-cyano-N-(5-isobutyryl-4,5,6,7-tetrahydrothiazolo[5,4-c]pyridin-2-yl)pyrrolidine-3-carboxamide]",< 1000
11,"N#CN1CC[C@H](C(=O)Nc2nc3c(s2)CN(C(=O)c2ccccc2)CC3)C1 [Example 191, (S)—N-(5-benzoyl-4,5,6,7-tetrahydrothiazolo[5,4-c]pyridin-2-yl)-1-cyanopyrrolidine-3-carboxamide]",< 1000
12,"COc1ccccc1C(=O)N1CCc2nc(NC(=O)[C@H]3CCN(C#N)C3)sc2C1 [Example 192, (S)-1-cyano-N-(5-(2-methoxybenzoyl)-4,5,6,7-tetrahydrothiazolo[5,4-c]pyridin-2-yl)pyrrolidine-3-carboxamide]",< 1000
13,"N#CN1CC[C@H](C(=O)Nc2nc3c(s2)CN(C(=O)c2ccccn2)CC3)C1 [Example 193, (S)-1-cyano-N-(5-picolinoyl-4,5,6,7-tetrahydrothiazolo[5,4-c]pyridin-2-yl)pyrrolidine-3-carboxamide]",< 1000
14,"Cn1ccc(C(=O)N2CCc3nc(NC(=O)[C@H]4CCN(C#N)C4)sc3C2)n1 [Example 194, (S)-1-cyano-N-(5-(1-methyl-1H-pyrazole-3-carbonyl)-4,5,6,7-tetrahydrothiazolo[5,4-c]pyridin-2-yl)pyrrolidine-3-carboxamide]",< 1000
15,"Cn1cccc(C(=O)N2CCc3nc(NC(=O)[C@H]4CCN(C#N)C4)sc3C2)c1=O [Example 195, (S)-1-cyano-N-(5-(1-methyl-2-oxo-1,2-dihydropyridine-3-carbonyl)-4,5,6,7-tetrahydrothiazolo[5,4-c]pyridin-2-yl)pyrrolidine-3-carboxamide]",< 1000
16,"N#CN1CC[C@H](C(=O)Nc2nc3c(s2)CN(C(=O)c2cccnc2)CC3)C1 [Example 196, (S)-1-cyano-N-(5-nicotinoyl-4,5,6,7-tetrahydrothiazolo[5,4-c]pyridin-2-yl)pyrrolidine-3-carboxamide]",< 1000
17,"CN(C)CC(=O)N1CCc2nc(NC(=O)[C@H]3CCN(C#N)C3)sc2C1 [Example 197, (S)-1-cyano-N-(5-(dimethylglycyl)-4,5,6,7-tetrahydrothiazolo[5,4-c]pyridin-2-yl)pyrrolidine-3-carboxamide]",1000 to 10000
18,"COC(=O)N1CCc2nc(NC(=O)[C@H]3CCN(C#N)C3)sc2C1 [Example 198, methyl (S)-2-(1-cyanopyrrolidine-3-carboxamido)-6,7-dihydrothiazolo[5,4-c]pyridine-5(4H)-carboxylate]",< 1000
19,"COCCOC(=O)N1CCc2nc(NC(=O)[C@H]3CCN(C#N)C3)sc2C1 [Example 199, 2-methoxyethyl (S)-2-(1-cyanopyrrolidine-3-carboxamido)-6,7-dihydrothiazolo[5,4-c]pyridine-5(4H)-carboxylate]",1000 to 10000
